Measurements taken from PMC6499206, “Quantification of Volatile Metabolites Derived From Garlic (Allium sativum) in Human Urine” (Frontiers in Nutrition, 2019).

Assay: Quantification of garlic-derived metabolites in human urine after ingestion of 3 g raw garlic (SIDA, SAFE, HRGC-MS / HRGC-GC-MS)
Format: in vivo
Parameters: metabolite in urine related to creatinine: unit not given here
Conditions: for metabolite concentration in urine, creatinine-normalized / metabolite concentration in urine / time of highest concentration in urine after garlic consumption / highest detected concentration of the sample series: 3 g raw garlic; for highest detected concentration of the sample series: same bulb
Text: Human urine samples were obtained from 18 volunteers (age 22–38 years, mean 27 years; 11 females, 7 males); thereby, one volunteer conducted the whole experimental series twice. At the time of examination, volunteers reported no known illness that might have potentially influenced the metabolism or the excretion of urine. The test persons were instructed to avoid foods that were rich in sulfur-containing substances at the testing day as well as 2 days preceding the testing day, namely garlic, onion, wild garlic, chives, cabbage, and leek, and were only allowed to consume the garlic sample provided in the course of the experiments. Additionally, subjects were asked to keep records of the food (including food supplements) and beverages they consumed during these 3 testing days. Generally, the overall panelists' requirements were in accordance with our previous studies ([5], [16]).
On the sampling day, the outer garlic cloves of a whole garlic bulb were peeled and cut into ~3 mm cubes by using a garlic cutter (Genius GmbH, Limburg/Lahn, Germany). Subsequently these cubes were thoroughly mixed and aliquoted into 3 g portions. Three to four test persons conducted the experiment at the same day. Each test person was asked to ingest a garlic portion of 3 g. In total, eight consecutive urine samples were provided by each test person, comprising one whole urine set. The samples were collected in sterile brown glass bottles, with sampling times as follows: one sample was provided directly prior to garlic consumption. The series of the second to eighth sample was then obtained at about 0.5, 1, 2, 4, 6, 8, and 24 h after garlic consumption, respectively. Between the first urine sample (prior to garlic consumption) and the seventh urine sample (8 h after garlic consumption) test persons only spent urine at the specific time points mentioned before. Another sample was provided at the next morning (24 h after garlic consumption). Between the samples provided 8 and 24 h after garlic consumption no urine was collected. All samples were immediately placed into a −80°C freezer and were kept frozen until further analysis.
The samples of each set were termed according to their sampling time. The following list provides the time intervals that are related to the respective sample name: • - pre: before garlic consumption • - 0.5 h post: 0.4–0.8 h after garlic consumption • - 1 h post: 0.9–1.3 h after garlic consumption • - 2 h post: 1.8 h−2.2 h after garlic consumption • - 4 h post: 3.8–4.4 h after garlic consumption • - 6 h post: 5.8–6.4 h after garlic consumption • - 8 h post: 7.8–8.4 h after garlic consumption • - 24 h post: 23.8–25.6 h after garlic consumption
A creatinine kit (Labor+Technik Eberhard Lehmann GmbH, Berlin, Germany) was used to determine the creatinine content in each urine sample. The determination principle of this kit is based on the reaction of creatinine with picric acid under basic conditions (Jaffé reaction). The formed complex was detected photometrically at a wavelength of 492 nm.
For quantification purposes, the deuterated standards ^2H3-AMS, ^2H3-AMSO, and ^2H3-AMSO2 were added to the sample and stirred for 10 min. Subsequently, DCM was added in a ratio of 1:2 (DCM/human urine; v/v) and this solution was stirred for further 30 min at room temperature. To isolate the volatile fraction from the urine samples we then applied SAFE-distillation ([17]), thereby distilling the respective samples at 50°C. After completion of the distillation process, 10 mL of DCM were applied in each case to rinse the SAFE apparatus and to ensure complete transition of the volatile compounds. This process was repeated with another 10 mL of DCM. After thawing, the obtained aqueous distillate phase was extracted three times with 25 mL DCM. The organic phases were combined, dried over anhydrous Na2SO4 and concentrated to a total volume of 100 μL by means of Vigreux distillation and subsequent micro-distillation at 50°C. […]

metabolite concentration in urine, creatinine-normalized (U XII, 2 h post (1.85 h)): 1.3 µg/mmol creatinine
metabolite concentration in urine (U XII, 4 h post (3.80 h)): 0.5 µg/kg
metabolite concentration in urine, creatinine-normalized (U XII, 4 h post (3.80 h)): 0.2 µg/mmol creatinine
metabolite concentration in urine (U XII, 6 h post (5.82 h)): 0.4 µg/kg
metabolite concentration in urine, creatinine-normalized (U XII, 6 h post (5.82 h)): 0.1 µg/mmol creatinine
metabolite concentration in urine (U XII, 8 h post (7.82 h)): 0.3 µg/kg
metabolite concentration in urine, creatinine-normalized (U XII, 8 h post (7.82 h)): 0.1 µg/mmol creatinine
metabolite concentration in urine (U XII, 24 h post (23.92 h)): traces^1
metabolite concentration in urine, creatinine-normalized (U XII, 24 h post (23.92 h)): traces^1
metabolite concentration in urine (U XII, pre (-0.08 h)): traces^1
metabolite concentration in urine, creatinine-normalized (U XII, pre (-0.08 h)): traces^1
metabolite concentration in urine (U XIII, 0.5 h post (0.42 h)): 0.2 µg/kg
metabolite concentration in urine, creatinine-normalized (U XIII, 0.5 h post (0.42 h)): 0.1 µg/mmol creatinine
metabolite concentration in urine (U XIII, 1 h post (0.92 h)): 0.9 µg/kg
metabolite concentration in urine, creatinine-normalized (U XIII, 1 h post (0.92 h)): 0.3 µg/mmol creatinine
metabolite concentration in urine (U XIII, 2 h post (1.92 h)): 1.0 µg/kg
metabolite concentration in urine, creatinine-normalized (U XIII, 2 h post (1.92 h)): 0.3 µg/mmol creatinine
metabolite concentration in urine (U XIII, 4 h post (3.92 h)): 0.8 µg/kg
metabolite concentration in urine, creatinine-normalized (U XIII, 4 h post (3.92 h)): 0.2 µg/mmol creatinine
metabolite concentration in urine (U XIII, 6 h post (5.92 h)): 0.4 µg/kg
metabolite concentration in urine, creatinine-normalized (U XIII, 6 h post (5.92 h)): 0.04 µg/mmol creatinine
metabolite concentration in urine (U XIII, 8 h post (7.92 h)): 0.3 µg/kg
metabolite concentration in urine, creatinine-normalized (U XIII, 8 h post (7.92 h)): 0.03 µg/mmol creatinine
metabolite concentration in urine (U XIII, 24 h post (23.92 h)): traces^1
metabolite concentration in urine, creatinine-normalized (U XIII, 24 h post (23.92 h)): traces^1
metabolite concentration in urine (U XIII, pre (-0.08 h)): < LOD^1
metabolite concentration in urine, creatinine-normalized (U XIII, pre (-0.08 h)): < LOD^1
amounts detected in samples collected prior to garlic intervention (Urine III, VII, VIII, XI, XII, XVI, XVII, pre-ingestion samples): ≤ 0.2 μg/mmol creatinine
time of highest concentration in urine after garlic consumption (Urine VIII): 0.5 h
variation factor of the concentration maxima between test persons (Urine XIII-XVI, highest vs lowest maximum): up to 3.2
highest detected concentration of the sample series (Urine XIII): 0.3 μg/mmol creatinine
highest detected concentration of the sample series (Urine XIV (AMS: printed Urine UIV)): 0.4 μg/mmol creatinine
highest detected concentration of the sample series (Urine XV): 1.0 μg/mmol creatinine
time of highest concentration in urine after garlic consumption (Urine XVI): 4 h
highest detected concentration of the sample series (Urine XVI): 0.3 μg/mmol creatinine
metabolite in urine related to creatinine (urine set U XIX, 0.5 h post (0.50 h), garlic 3.1133 g): 0.1
metabolite in urine related to creatinine (urine set U XIX, 1 h post (1.00 h), garlic 3.1133 g): 1.5
metabolite in urine related to creatinine (urine set U XIX, 2 h post (2.00 h), garlic 3.1133 g): 0.4
metabolite in urine related to creatinine (urine set U XIX, 4 h post (4.00 h), garlic 3.1133 g): 0.2
metabolite in urine related to creatinine (urine set U XIX, 6 h post (6.20 h), garlic 3.1133 g): 0.1
metabolite in urine related to creatinine (urine set U XIX, 8 h post (7.93 h), garlic 3.1133 g): 0.1
metabolite in urine related to creatinine (urine set U XIX, 24 h post (23.98 h), garlic 3.1133 g): 0.02
metabolite in urine related to creatinine (urine set U XIX, pre (-0.07 h), garlic 3.1133 g): < LOD^1
metabolite in urine related to creatinine (urine set U XVII, 0.5 h post (0.58 h), garlic 3.1559 g): 0.01
metabolite in urine related to creatinine (urine set U XVII, 1 h post (1.00 h), garlic 3.1559 g): 0.1
metabolite in urine related to creatinine (urine set U XVII, 2 h post (2.17 h), garlic 3.1559 g): 0.3
metabolite in urine related to creatinine (urine set U XVII, 4 h post (4.00 h), garlic 3.1559 g): 0.2
metabolite in urine related to creatinine (urine set U XVII, 6 h post (6.08 h), garlic 3.1559 g): 0.02
metabolite in urine related to creatinine (urine set U XVII, 8 h post (8.00 h), garlic 3.1559 g): 0.02
metabolite in urine related to creatinine (urine set U XVII, 24 h post (23.92 h), garlic 3.1559 g): traces^1
metabolite in urine related to creatinine (urine set U XVII, pre (-0.08 h), garlic 3.1559 g): traces^1
metabolite in urine related to creatinine (urine set U XVIII, 0.5 h post (0.63 h), garlic 3.1981 g): 0.2
metabolite in urine related to creatinine (urine set U XVIII, 1 h post (1.05 h), garlic 3.1981 g): 0.3
metabolite in urine related to creatinine (urine set U XVIII, 2 h post (2.00 h), garlic 3.1981 g): 0.6
metabolite in urine related to creatinine (urine set U XVIII, 4 h post (3.97 h), garlic 3.1981 g): 0.4
metabolite in urine related to creatinine (urine set U XVIII, 6 h post (5.97 h), garlic 3.1981 g): 0.1
metabolite in urine related to creatinine (urine set U XVIII, 8 h post (8.30 h), garlic 3.1981 g): 0.4
metabolite in urine related to creatinine (urine set U XVIII, 24 h post (24.13 h), garlic 3.1981 g): traces^1
metabolite in urine related to creatinine (urine set U XVIII, pre (-0.08 h), garlic 3.1981 g): < LOD^1
Compound: C=CCSC [AMS, allyl methyl sulfide]
